Laboratory results reported in US20240083853A1, “HSD17B13 INHIBITORS AND USES THEREOF” (FL2022-001, Inc., priority 2020, published 2024).
Where a name gives a salt, the structure may show the parent alone.

Target: T1, Recombinant human HSD17B13 enzyme (Homo sapiens, UniProt Q7Z5P4)
T1 sequence (Q7Z5P4 20-300): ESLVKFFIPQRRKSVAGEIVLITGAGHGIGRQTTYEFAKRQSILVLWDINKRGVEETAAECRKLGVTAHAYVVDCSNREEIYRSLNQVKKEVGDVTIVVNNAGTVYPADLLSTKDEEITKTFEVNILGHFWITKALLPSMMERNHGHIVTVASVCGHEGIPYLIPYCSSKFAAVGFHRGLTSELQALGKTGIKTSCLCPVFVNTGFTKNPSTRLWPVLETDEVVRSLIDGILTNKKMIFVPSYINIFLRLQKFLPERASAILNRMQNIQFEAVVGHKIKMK
Assay: HSD17b13 NAD(P)H-Glo biochemical assay
Details: 50 uM estradiol, 1 mM NAD+, NAD(P)H-Glo luminescence; read-out: HSD17β13 IC50
Description: Example B-1: HSD17b13 NAD(P)H-Glo Biochemical Assay
Recombinant human HSD17B13 enzyme. Substrate: estradiol (Sigma β-Estradiol E8875), 100 mM in DMSO. Cofactor: NAD+ Grade I free acid (Sigma 10127965001), 20 mM in H2O. Assay buffer final concentration: 20 mM Tris pH7.4 with 0.002% Tween-20 and 0.02% BSA. Assay performed in 384 well solid bottom plate (Corning 3570). Enzymatic activity detected by NAD(P)H-Glo™ Detection System (Promega G9062).
Inhibitor compounds were serially diluted in DMSO and then further diluted in assay buffer to a 10× concentration consisting of 1% DMSO.
HSD17b13 enzyme was diluted in 1× assay buffer to the desired enzyme concentration based on the specific activity of the enzyme lot. 20 uL of diluted enzyme was added to each well along with 2.5 uL of 10× inhibitor solution. Assay plate was incubated at RT for 20 minutes, and then 2.5 uL of a 10× substrate/cofactor mix was added to each well for a final concentration of 50 uM estradiol and 1 mM NAD+. Assay plate was incubated at 37° C. for 3 hours. NAD(P)H-Glo™ Detection System reagents were prepared according to manufacturer's specifications, and 25 uL was added to each well. After incubating for 1 hour at RT, luminescence was measured.

IC50	SMILES
< 100 nM	CC1(C)CCN(c2ccc(-n3nnc4cc(F)c(O)c(F)c43)cn2)CC1 [Compound 26.11, 1-(6-(4,4-Dimethylpiperidin-1-yl)pyridin-3-yl)-5,7-difluoro-1H-benzo[d][1,2,3]triazol-6-ol]
100 to 1000 nM	Oc1c(F)cc2cnn(-c3ccc(N4CCC4)cc3)c2c1F [Compound 23.12, 1-(4-(Azetidin-1-yl)phenyl)-5,7-difluoro-1H-indazol-6-ol]
100 to 1000 nM	CS(=O)(=O)N1CCN(c2ccc(-n3ncc4cc(F)c(O)c(Cl)c43)cc2)CC1 [Compound 25, 7-Chloro-5-fluoro-1-(4-(4-(methylsulfonyl)piperazin-1-yl)phenyl)-1H-indazol-6-ol]
100 to 1000 nM	CS(=O)(=O)N1CCCN(c2ccc(-n3ncc4cc(F)c(O)c(F)c43)cc2)CC1 [Compound 23.14, 5,7-Difluoro-1-(4-(4-(methylsulfonyl)-1,4-diazepan-1-yl)phenyl)-1H-indazol-6-ol]
100 to 1000 nM	CS(=O)(=O)N1CCN(c2ccc(-n3nnc4cc(F)c(O)c(F)c43)nc2)CC1 [Compound 26.16, 5,7-Difluoro-1-(5-(4-(methylsulfonyl)piperazin-1-yl)pyridin-2-yl)-1H-benzo[d][1,2,3]triazol-6-ol]
100 to 1000 nM	CS(=O)(=O)N1CC2(CN(c3ccc(-n4ncc5cc(F)c(O)c(F)c54)cc3)C2)C1 [Compound 20.23, 5,7-Difluoro-1-(4-(6-(methylsulfonyl)-2,6-diazaspiro[3.3]heptan-2-yl)phenyl)-1H-indazol-6-ol]
< 100 nM	CC1(C#N)CCN(c2ccc(-n3ncc4cc(F)c(O)c(F)c43)cc2)CC1 [Compound 23.21, 1-(4-(5,7-Difluoro-6-hydroxy-1H-indazol-1-yl)phenyl)-4-methylpiperidine-4-carbonitrile]
100 to 1000 nM	CS(=O)(=O)N1CCN(c2ncc(-n3ncc4cc(F)c(O)c(F)c43)cn2)CC1 [Compound 7, 5,7-Difluoro-1-(2-(4-(methylsulfonyl)piperazin-1-yl)pyrimidin-5-yl)-1H-indazol-6-ol]
100 to 1000 nM	CS(=O)(=O)N1CCN(c2ccc(-n3ncc4cc(F)c(O)c(F)c43)cn2)CC1 [Compound 26.2, 5,7-Difluoro-1-(6-(4-(methylsulfonyl)piperazin-1-yl)pyridin-3-yl)-1H-indazol-6-ol]
< 100 nM	CS(=O)(=O)N1CCC(c2ccc(-n3ncc4cc(F)c(O)c(F)c43)cc2)CC1 [Compound 27.7, 5,7-Difluoro-1-(4-(1-(methylsulfonyl)piperidin-4-yl)phenyl)-1H-indazol-6-ol]
< 100 nM	CCC1(C)CCN(c2ccc(-n3ncc4cc(F)c(O)c(F)c43)cc2)CC1 [Compound 24.5, 1-(4-(4-Ethyl-4-methylpiperidin-1-yl)phenyl)-5,7-difluoro-1H-indazol-6-ol]
< 100 nM	CC1CCN(c2ccc(-n3ncc4cc(F)c(O)c(F)c43)cc2)CC1 [Compound 23.18, 5,7-Difluoro-1-(4-(4-methylpiperidin-1-yl)phenyl)-1H-indazol-6-ol]
100 to 1000 nM	CS(=O)(=O)N1CCN(c2cnc(-n3nnc4cc(F)c(O)c(F)c43)cn2)CC1 [Compound 26.19, 5,7-Difluoro-1-(5-(4-(methylsulfonyl)piperazin-1-yl)pyrazin-2-yl)-1H-benzo[d][1,2,3]triazol-6-ol]
100 to 1000 nM	Oc1c(F)cc2cnn(-c3ccc(N4CCOCC4)cc3)c2c1F [Compound 23.3, 5,7-Difluoro-1-(4-morpholinophenyl)-1H-indazol-6-ol]
< 100 nM	CCN1CCC(c2ccc(-n3ncc4cc(F)c(O)c(F)c43)cc2)CC1 [Compound 29, 1-(4-(1-Ethylpiperidin-4-yl)phenyl)-5,7-difluoro-1H-indazol-6-ol TFA salt]
< 100 nM	CC1(C)CCN(c2ccc(-n3ncc4cc(F)c(O)c(F)c43)cn2)CC1 [Compound 26, 1-(6-(4,4-Dimethylpiperidin-1-yl)pyridin-3-yl)-5,7-difluoro-1H-indazol-6-ol]
100 to 1000 nM	Oc1c(F)cc2nnn(-c3ccc(N4CCO[C@@H](c5ccccc5)C4)cc3)c2c1F [Compound 26.26, (S)-5,7-Difluoro-1-(4-(2-phenylmorpholino)phenyl)-1H-benzo[d][1,2,3]triazol-6-ol]

The remaining lines, values behind:

SMILES	IC50
Oc1cc2c(cnn2-c2ccc(Nc3ccccc3)cc2)cc1F [Compound 3, 5-Fluoro-1-(4-(phenylamino)phenyl)-1H-indazol-6-ol]	100 to 1000 nM
Oc1ccc(-c2ccc(-n3ncc4c(F)cc(O)cc43)cc2)cc1 [Compound 2.7, 4-Fluoro-1-(4′-hydroxy-[1,1′-biphenyl]-4-yl)-1H-indazol-6-ol]	100 to 1000 nM
COc1ccc(-c2ccc(-n3ncc4cc(F)c(O)cc43)cc2)cc1 [Compound 13.21, 5-Fluoro-1-(4′-methoxy-[1,1′-biphenyl]-4-yl)-1H-indazol-6-ol]	100 to 1000 nM
CC1(C)CCN(c2ccc(-n3ncc4c(C(F)(F)F)c(F)c(O)cc43)cc2)CC1 [Compound 25.1, 1-(4-(4,4-Dimethylpiperidin-1-yl)phenyl)-5-fluoro-4-(trifluoromethyl)-1H-indazol-6-ol]	100 to 1000 nM
Oc1c(F)cc2cnn(-c3ccc(N4CCC5(CCO5)CC4)cc3)c2c1F [Compound 26.1, 1-(4-(1-Oxa-7-azaspiro[3.5]nonan-7-yl)phenyl)-5,7-difluoro-1H-indazol-6-ol]	100 to 1000 nM
Cc1c(O)c(F)cc2cnn(-c3ccc(-c4cccc(O)c4)cc3)c12 [Compound 4.3, 5-Fluoro-1-(3′-hydroxy-[1,1′-biphenyl]-4-yl)-7-methyl-1H-indazol-6-ol]	100 to 1000 nM
N#Cc1ccc(-c2ccc(-n3ncc4cc(F)c(O)cc43)cc2)cc1 [Compound 13.18, 4′-(5-Fluoro-6-hydroxy-1H-indazol-1-yl)-[1,1′-biphenyl]-4-carbonitrile]	< 100 nM
C[C@@H]1CN(c2ccc(-n3ncc4cc(F)c(O)c(F)c43)cc2)C[C@H](C)S1 [Compound 32.4, 1-(4-(cis-2,6-Dimethylthiomorpholino)phenyl)-5,7-difluoro-1H-indazol-6-ol]	< 100 nM
CS(=O)(=O)c1ccc(-c2ccc(-n3ncc4cc(F)c(O)cc43)cc2)cc1 [Compound 13.26, 5-Fluoro-1-(4′-(methylsulfonyl)-[1,1′-biphenyl]-4-yl)-1H-indazol-6-ol]	100 to 1000 nM
Oc1cc2c(cnn2-c2ccc(-c3cccc(F)c3)cc2)cc1F [Compound 13.4, 5-Fluoro-1-(3′-fluoro-[1,1′-biphenyl]-4-yl)-1H-indazol-6-ol]	100 to 1000 nM
Oc1ccc(-c2ccc(-n3nnc4cc(F)c(O)cc43)cc2)cc1 [Compound 10, 5-Fluoro-1-(4′-hydroxy-[1,1′-biphenyl]-4-yl)-1H-benzo[d][1,2,3]triazol-6-ol]	< 100 nM
Oc1ccc2cnn(-c3ccc(-c4ccc(O)c(Cl)c4)cc3)c2c1 [Compound 18.1, 1-(3′-Chloro-4′-hydroxy-[1,1′-biphenyl]-4-yl)-1H-indazol-6-ol]	100 to 1000 nM
Oc1c(F)cc2cnn(-c3ccc(-c4ccncc4)cc3)c2c1F [Compound 14.4, 5,7-Difluoro-1-(4-(pyridin-4-yl)phenyl)-1H-indazol-6-ol]	< 100 nM
CC1(C)CCN(c2ccc(-n3nnc4cc(F)c(O)cc43)cc2)CC1 [Compound 21.7, 1-(4-(4,4-Dimethylpiperidin-1-yl)phenyl)-5-fluoro-1H-benzo[d][1,2,3]triazol-6-ol]	< 100 nM
Oc1c(F)cc2cnn(-c3ccc(-c4cc[nH]n4)cc3)c2c1F [Compound 14.2, 1-(4-(1H-Pyrazol-3-yl)phenyl)-5,7-difluoro-1H-indazol-6-ol]	100 to 1000 nM
Oc1cc2c(cnn2-c2ccc(-c3ccccc3Cl)cc2)cc1F [Compound 13.6, 1-(2′-Chloro-[1,1′-biphenyl]-4-yl)-5-fluoro-1H-indazol-6-ol]	100 to 1000 nM
CS(=O)(=O)c1ccccc1-c1ccc(-n2ncc3cc(F)c(O)cc32)cc1 [Compound 13.24, 5-Fluoro-1-(2′-(methylsulfonyl)-[1,1′-biphenyl]-4-yl)-1H-indazol-6-ol]	1000 to 30000 nM
Oc1c(F)cc2cnn(-c3ccc(-c4ccc(Cl)cc4)cc3)c2c1F [Compound 13, 1-(4′-Chloro-[1,1′-biphenyl]-4-yl)-5,7-difluoro-1H-indazol-6-ol]	< 100 nM
N#Cc1cccc(-c2ccc(-n3ncc4cc(F)c(O)cc43)cc2)c1 [Compound 13.17, 4′-(5-Fluoro-6-hydroxy-1H-indazol-1-yl)-[1,1′-biphenyl]-3-carbonitrile]	100 to 1000 nM
Oc1cc2c(cnn2-c2ccc(-c3ccc(O)c(Cl)c3)cc2)cc1F [Compound 15, 1-(3′-Chloro-4′-hydroxy-[1,1′-biphenyl]-4-yl)-5-fluoro-1H-indazol-6-ol]	100 to 1000 nM
Oc1cccc(-c2ccc(-n3ncc4c(Cl)c(F)c(O)cc43)cc2)c1 [Compound 5, 4-Chloro-5-fluoro-1-(3′-hydroxy-[1,1′-biphenyl]-4-yl)-1H-indazol-6-ol]	100 to 1000 nM
